Measured values published in US20230303512A1, “MODULATORS OF MYB-MEDIATED TRANSCRIPTION AND USES THEREOF” (Massachusetts Institute of Technology, priority 2020, published 2023).
Values joined by “and” are separate entries in the source; they are usually repeats but may differ in a detail not shown here. Identical values can stand only once. “Also recorded” adds a separate entry of the source.

Columns and labels:
c-Myb = experiment: 5×MRE-luciferase reporter assay in HEK293T cells; assay type: cell-based; settings: Homo sapiens, HEK-293T; c-Myb plus 5×MRE firefly luciferase transfected, 18 hours, normalized to DMSO
Procedure: (§1) An assay using a 5×Myb-response element (MRE)-luciferase construct was used to evaluate the compounds' ability to bind MYB and/or disrupt the MYB-NFIB interaction. The 5×MRE reporter was conducted in both HEK293T cells and Jurkat cells, and for the HEK293T system a transient transfection of plasmid vectors expressing either MYB or MYB-NFIB, and a plasmid containing the 5×MRE promoter sequence cloned upstream of Firefly luciferase were used. For the Jurkat system, the reporter was driven by endogenous MYB, and the 5×MRE construct was transiently transfected. Cells were treated with two different high concentrations of each compound (10 and 20 µM) and the luciferase activity was measured 18 hours post-treatment. Individual wells were normalized for viability (cell count) using the Cyto-tox One assay (Promega).
HEK293T cells were plated at a density of 7500 cells/well in a 384-well plate. The following day, the cells were transfected with plasmids encoding 1)c-Myb under control of a CMV promoter, 2) 5×MRE reporter construct driving firefly luciferase expression in a 1:2 ratio. 4 hours following transfection, compound analogs were added using a Tecan transfer tool to the wells. The plate was incubated for 18 hours, and then firefly luciferase signal measured using promega Dual-Glo luciferase assay system according to the manufacturer's protocols. The signal was normalized to control wells which were treated with DMSO vehicle.

Jurkat = experiment: Cell Titer Glo viability assay, Jurkat; assay type: cell-based; settings: Homo sapiens, read-out: IC50 Cell Titer Glow Viability Jurkat
endogenous MYB = experiment: 5×MRE-luciferase reporter assay in Jurkat cells; assay type: cell-based; settings: Homo sapiens, 5×MRE firefly luciferase, 18 hours, normalized to DMSO
Procedure: as §1
Jurkat cells were reverse transfected at a density of 40,000 cells/well at the time of plating with a plasmid encoding 5×MRE reporter construct driving firefly luciferase expression. 4 hours following transfection, the compound analogs were added using a Tecan transfer tool to the wells. The plate was incubated for 18 hours, and then firefly luciferase signal was measured using promega Steady-glo luciferase assay system according to the manufacturer's protocols. The signal was normalized to control wells which were treated with DMSO vehicle.

Molt4-5×MRE-FLuc cells = experiment: Cell-Titer Glo viability assay, Molt4-5×MRE-FLuc cells; assay type: cell-based; settings: 4 hours; read-out: IC50 Cell Titer Glo Molt4-5xMRE-FLuc Viability
Procedure: Molt4-5×MRE-FLuc cells were plated at a density of 10000 cells/well in 25 uL of media in a 384-well plate. The following day, compound analogs were added using a Tecan transfer tool. The plates were incubated for 4 hours, and then the viability was measured using promega Cell-titer glo assay according to the manufacturer's protocols.

MYB-TAF12 interaction = molecular target: T1, MYB-TAF12 interaction (Homo sapiens, UniProt P10242); experiment: In-cell BRET protein-protein interaction assay; assay type: cell-based; settings: FIG. 1B, read-out: IC50 for blocking the MYB-TAF12 interaction
T1 construct: BRET donor or acceptor fusion (which one is not specified); expressed in transfected cells
Procedure: (§2) In-cell bioluminescence resonance energy transfer (BRET) assays were developed to assess the influence of the compounds on MYB-p300 and MYB-TAF12 interactions (FIG. 1A). […] The ability of KI-TM-001 to modulate MYB protein and transcript levels in MOLT4 and Jurkat cells was also evaluated. […] Degradation appears to be proteasome-dependent as MYB can be rescued by treatment with the proteasome inhibitor MG132.

MYB [1] = molecular target: T2, MYB (Homo sapiens, UniProt P10242); experiment: MYB protein levels in MOLT4 and Jurkat cells; assay type: cell-based; set-up: endogenous in cells; host or cells: MOLT4 and Jurkat cells
Procedure: FIG. 2 is a plot showing a dose curve of KI-TM-001, and its effect on MYB protein levels in Molt4 at the 6 hour timepoint.
as §2
Target sequence in this assay (P10242 whole entry): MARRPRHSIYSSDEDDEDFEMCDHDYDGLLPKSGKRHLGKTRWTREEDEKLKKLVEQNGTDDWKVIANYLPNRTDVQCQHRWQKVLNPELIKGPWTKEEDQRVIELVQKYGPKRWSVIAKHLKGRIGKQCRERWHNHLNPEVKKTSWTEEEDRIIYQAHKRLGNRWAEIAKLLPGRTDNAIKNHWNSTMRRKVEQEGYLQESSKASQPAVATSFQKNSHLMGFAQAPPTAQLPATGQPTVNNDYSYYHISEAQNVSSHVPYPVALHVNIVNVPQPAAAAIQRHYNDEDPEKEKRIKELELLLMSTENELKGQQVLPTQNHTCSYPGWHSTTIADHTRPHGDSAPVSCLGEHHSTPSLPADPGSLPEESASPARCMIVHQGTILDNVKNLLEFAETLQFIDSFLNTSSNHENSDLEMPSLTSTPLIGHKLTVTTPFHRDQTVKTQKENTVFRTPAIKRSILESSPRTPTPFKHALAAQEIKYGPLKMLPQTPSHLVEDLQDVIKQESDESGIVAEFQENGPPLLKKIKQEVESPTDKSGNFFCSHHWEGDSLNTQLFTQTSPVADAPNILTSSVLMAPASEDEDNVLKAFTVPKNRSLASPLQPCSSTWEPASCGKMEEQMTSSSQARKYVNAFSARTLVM

MYB [2] = molecular target: T2, MYB; experiment: Initial binding studies, MYB
Procedure: (§3) Next, analogues of KI-TM1-001 were prepared and evaluated. Compounds of Formula (I) may be prepared using the synthetic schemes and procedures described in detail below.
Target sequence in this assay (P10242 whole entry, species assumed): as the sequence (P10242 whole entry) above

endogenous Myb protein = experiment: Molt4-5×MRE-FLuc reporter assay; assay type: cell-based; settings: 4 hours, One-Glo, normalized to DMSO; read-out: IC50 Molt4-5xMRE-FLuc Reporter
Procedure: Molt4 cells were stably transduced with a lentiviral construct encoding a 5×MRE Myb-responsive promoter driving firefly luciferase expression. The reporter output is controlled by the levels/activity of endogenous Myb protein in the Molt4 cell line.
Molt4-5×MRE-FLuc cells were plated at a density of 10000 cells/well in 25 uL of media in a 384-well plate. Compound analogs were added using a Tecan transfer tool to the wells. The plate was incubated for 4 hours, and then firefly luciferase signal measured using promega One-Glo luciferase assay system according to the manufacturer's protocols. The signal was normalized to control wells which were treated with DMSO vehicle.

[3] = system: MM1.S, a multiple myeloma line; experiment: Cell Titer Glo assay, MM1.S; assay type: cell-based; settings: Homo sapiens, FIG. 3B
Excerpt: FIG. 3B is a plot showing Cell Titer Glo assay results for KI-TM-001 in several hematopoietic lines versus prostate and ovarian cell lines.
(§4) Efforts have also included assessment of impact on viable cell growth using traditional luminescent cell viability assays (e.g., CellTiter-Glo™ or GTG) and high-throughput profiling in barcoded and pooled cancer cell lines. Collaboration with the Broad Institute's PRISM cell profiling platform provided the ability to survey sensitivity to KI-TM-001 against 800 cancer cell lines representing a broad spectrum of lineages, including 300 suspension lines and 500 adherent lines.
(§5) Roughly 650 of the lines passed quality control analyses. […] The CTG assay is well established has been used to survey viability of cell lines used routinely in the lab, noting a separation between solid tumor lines and hematopoetic lineages (FIG. 3B).

800 cancer cell lines = experiment: PRISM cell profiling in barcoded and pooled cancer cell lines; assay type: cell-based
Excerpt: as §4, §5

MYB-NFIB fusion protein = experiment: Initial binding studies, MYB-NFIB
Procedure: as §3

APL line NB4 = experiment: PRISM cell profiling, NB4; assay type: cell-based; settings: PRISM data set
Excerpt: as §4, §5

T1 sequence (P10242 whole entry, the tested form may be a part): as the sequence (P10242 whole entry) above

Compound | IC50 (Jurkat) | IC50 (c-Myb) | IC50 (endogenous MYB) | further results
Cc1cc(N2CCC(NCc3ccc(N4CCCC4)cc3)CC2)nc(N)n1 [drawing 233] | > 30 µM | > 40 µM | 17.3 µM | 
Cc1cc(N2CCC(NCc3ccccc3N3CCCC3)CC2)nc(N)n1 [drawing 232] | > 30 µM | > 40 µM | 3.09 µM | 
Cc1cc(N2CCC(NCc3cccc(N4CCCC4)c3)CC2)nc(N)n1 [drawing 228] | 3.24 µM | 15.9 µM | 3.49 µM | 
Cc1cc(N2CCC(NCc3cccc(N4CCCC4)c3)CC2)ncn1 [drawing 244] |  | > 30 µM |  | 
Cc1cc(N2CCC(NCc3cccc(-n4cccn4)c3)CC2)nc(N)n1 | > 30 µM | > 40 µM | 30.6 µM | 
CCN(CC)c1ccc(CNC2CCN(c3cc(C)nc(N)n3)CC2)cc1 [drawing 246] |  | > 30 µM |  | 
Cc1cc(N2CCC(NCc3cccc(C(C)(C)C)c3)CC2)nc(N)n1 [drawing 245] |  | > 30 µM |  | 
CC(=O)N(Cc1cccc(N2CCCC2)c1)C1CCN(c2cc(C)nc(N)n2)CC1 [drawing 231] | > 30 µM |  | 11 µM | 
Cc1cc(N2CCC(NCc3cccc(N4CCCC4)c3)CC2)nc(N)n1 [KI-TM1-001, 4-Methyl-6-(4-((3-(pyrrolidin-1-yl)benzyl)amino)piperidin-1-yl)pyrimidin-2-amine] |  |  |  | IC50 (Molt4-5×MRE-FLuc cells): > 40 µM; IC50 (MYB-TAF12 interaction): 7.07 µM and 7.1 µM; time to impact on MYB protein levels (MYB [1]; MOLT4 and Jurkat cells): ≤ 2 h; mechanism of MYB degradation (MYB [1]; MYB rescued by the proteasome inhibitor MG132): proteasome-dependent; effect on MYB protein levels (MYB [1]; different cell lines (MOLT4, Jurkat), FIG. 1C-E, FIG. 2, listed as KI-TM-001): dose-dependent reduction of MYB protein; also recorded: dose-dependent manner; binding to MYB (MYB [2]): binds; IC50 (endogenous Myb protein): 13.6 µM; GI50 [3]: 2.01 µM; IC50 (800 cancer cell lines; PRISM data set, read-out: IC50 in a number of hematopoietic lines): < 1 µM; lineages most impacted / lineage enrichment (median AUC versus lineage) (800 cancer cell lines; PRISM, roughly 650 lines passed quality control, FIG. 3A, listed as KI-TM-001): rhabdomysosarcoma, multiple myeloma, lymphoma, and leukemia; also recorded: mild enrichment for leukemia, lymphoma, multiple myeloma and rhabdomyosarcoma (RMS) cell lines; binding to MYB-NFIB fusion protein (MYB-NFIB fusion protein): binds; IC50 (APL line NB4): 0.21 µM
Cc1cc(N2CCC(NCc3ccccc3)CC2)nc(N)n1 | > 30 µM | > 40 µM | 25.7 µM | 
Cc1cc(N2CCC(N(Cc3cccc(N4CCCC4)c3)C(=O)NC(C)C)CC2)nc(N)n1 [drawing 230] | > 30 µM |  | 26.4 µM | 

Second part, led by results:

IC50 (Jurkat) | Compound | IC50 (c-Myb) | IC50 (endogenous MYB) | further results
21.6 µM | Cc1cc(N2CCC(NCc3cccc(-n4cccc4)c3)CC2)nc(N)n1 [drawing 236] | 14.8 µM | 12.1 µM | 
> 30 µM | COc1cccc(CNC2CCN(c3cc(C)nc(N)n3)CC2)c1 [drawing 238] | > 40 µM | 30.1 µM | 
4.41 µM | Cc1cc(N2CCC[C@@H](NCc3cccc(N4CCCC4)c3)C2)nc(N)n1 [drawing 241] |  | 2.25 µM | 
> 30 µM | Cc1cc(N2CCC(NC(=O)c3cccc(N4CCCC4)c3)CC2)nc(N)n1 [drawing 234] | > 40 µM | 11.1 µM | 
19.7 µM | Cc1cc(N2CCC[C@H](NCc3cccc(N4CCCC4)c3)C2)nc(N)n1 [drawing 242] |  | 8.08 µM | 
> 30 µM | Cc1cc(NCCCNCc2cccc(N3CCCC3)c2)nc(N)n1 [drawing 243] |  | 8.55 µM | 
> 30 µM | Cc1cc(N2CCC(NCc3cccc(N(C)C)c3)CC2)nc(N)n1 [drawing 237] | > 40 µM | > 40 µM | 
11.2 µM | Cc1cc(N2CCC(NCc3cccc(N4CCCCC4)c3)CC2)nc(N)n1 [drawing 235] | 25.2 µM | 4.18 µM | 
> 30 µM | Cc1cc(N2CCC(NCc3cccc(-n4ccnc4)c3)CC2)nc(N)n1 [drawing 240] | > 40 µM | 25.7 µM | 
